Each structure is given as a SMILES string.

Assay [1] concerns the target human cyclophilin B (Homo sapiens, UniProt P23284). Put plainly: Peptidylprolyl isomerase (PPIase) activity inhibition assay. It counts as biochemical. The following applies: Cyp B, test peptide Suc-Ala-Ala-Pro-Phe-Nan. As to the method: To determine the anti-asthmatic, anti-allergic, anti-inflammatory and/or immunomodulating properties of the compounds according to the invention, in-vitro and in-vivo investigations were carried out. […] For the initial screening (10 μmol/l), the inhibition of human cyclophilin B in the PPIase test is determined.
The PPIase activity is tested according to a globally customary enzyme test: G. Fischer, H. Bang, C. Mech, Biomed. Biochim. Acta 43 1101-1111; G. Fischer, H. Bang, A. Schellenberger, Biochim. Biophys. Acta 791 (1984), 87-97; D. H. Rich et al., J. Med. Chem. 38 (1995), 4164-4170.
The compounds of the general formula I according to the invention are preincubated at 4° C. for 15 minutes together with 10 nmol of Cyp B. The enzyme reaction is started using the test peptide Suc-Ala-Ala-Pro-Phe-Nan after addition of chymotrypsin and HEPES buffer. The extinction change at 390 nm is then monitored and evaluated. The photometrically determined extinction change results from two sub-reactions: a) the rapid chymotryptic cleavage of the trans-peptide; b) the non-enzymatic cis-trans isomerization, which is catalysed by cyclophilins.

The test system of assay [2] is pulmonary eosinophil infiltration. Put plainly: Inhibition of late-phase eosinophilia 24 h after inhalational ovalbumin challenge in actively sensitized guinea-pigs. The assay is classed as in vivo. Conditions: BAL 24 h after OVA challenge. As to the method: The inhibition of pulmonary eosinophil infiltration by the substances is tested in an in-vivo test on male Dunkin-Hartley guinea-pigs (200-250 g) sensitized against ovalbumin (OVA). The sensitization is carried out by means of two intraperitoneal injections of a suspension of 20 μg of OVA together with 20 mg of aluminium hydroxide as an adjuvant in 0.5 ml of physiological saline solution per animal on two successive days. 14 days after the second injection, the animals are pretreated with mepyramine maleate (10 mg/kg i.p.) in order to protect them from anaphylactic death. 30 minutes later, the animals are exposed for 30 sec in a plastic box to an OVA aerosol (0.5 mg/ml) which is generated by a nebulizer driven by compressed air (19.6 kPa) (allergen challenge). Control animals are nebulized with physiological saline solution. 24 hours after the challenge, the animals are anaesthetized with an overdose of ethylurethane (1.5 g/kg of body weight i.p.) and a bronchoalveolar lavage (BAL) is carried out with 2×5 ml of physiological saline solution. The BAL fluid is collected, centrifuged at 300 rpm for 10 min and the cell pellet is then resuspended in 1 ml of physiological saline solution. The eosinophils are stained using the Becton-Dickinson test kit (N. 5877) for eosinophils and counted in a Neubauer chamber. 2 control groups (nebulization with physiological saline solution and nebulization with OVA solution) are additionally included in each test.
The percentage inhibition of the eosinophilia of the test group treated with substance is calculated according to the following formula:
(A-C)-(B-C)/(A-C)×100=% inhibition
The test substances are administered intraperitoneally or orally as a suspension in 10% polyethylene glycol 300 and 0.5% strength 5-hydroxyethylcellulose 2 hours before allergen challenge. The control groups are treated with the vehicle according to the administration form of the test substance. The number of animals per control and test group is 3-10.

Sequence of human cyclophilin B (P23284 34-216): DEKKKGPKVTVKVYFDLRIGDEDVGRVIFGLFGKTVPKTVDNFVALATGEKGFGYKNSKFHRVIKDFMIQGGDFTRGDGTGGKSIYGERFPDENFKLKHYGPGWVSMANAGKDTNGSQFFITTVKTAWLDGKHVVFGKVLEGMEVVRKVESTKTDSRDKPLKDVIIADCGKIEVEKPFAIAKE

Take `COc1ccc2c(c1)c(OCc1c(Cl)cccc1Cl)nn2Cc1cccc([N+](=O)[O-])c1` [Example 84]: at 10 µM the inhibition in assay [1] was 90%.
In assay [1], `COc1ccc2c(c1)c(OCC(=O)Nc1ccc(Cl)cc1Cl)nn2S(=O)(=O)c1ccc(C)cc1` [Example 73] gave an inhibition at 10 µM of 67%.
`O=C(Nc1ccc2c(c1)c(OCCOc1ccc([N+](=O)[O-])cc1)nn2Cc1ccc(Cl)cc1Cl)Nc1cccc2ccccc12` [Example 114, 1-{1-(2,4-Dichlorobenzyl)-3-[2-(4-nitrophenoxy)ethoxy]-1H-indazol-5-yl}-3-naphthalen-1-ylurea]: in assay [2] (10 mg/kg i.p. -2 h), the “Eosinophil million/animal x ± s, B = group treated with substance with OVA challenge” value (“Eosinophil million/animal x ± s” below) is 1.19 ± 0.43 million/animal and the “Inhibition [%] of eosinophilia” value is recorded as 58%. Moreover, at 10 µM the inhibition in assay [1] was 100%.
In the case of `COc1ccc2c(c1)c(OCCOc1c(F)cc(F)cc1Br)nn2CCOc1ccc([N+](=O)[O-])cc1` [Example 99, 3-[2-(2-Bromo-4,6-difluorophenoxy)ethoxy]-5-methoxy-1-[2-(4-nitrophenoxy)ethyl]-1H-indazole], the “Eosinophil million/animal x ± s” value stood at 1.35 ± 0.67 million/animal in assay [2] (10 mg/kg i.p. -2 h) and 1.33 ± 0.23 million/animal in assay [2] (30 mg/kg p.o. -2 h). Moreover, the “Inhibition [%] of eosinophilia” value was 46% in assay [2] (10 mg/kg i.p. -2 h) and 33% in assay [2] (30 mg/kg p.o. -2 h).
As for `COc1ccc2c(c1)c(OCc1cc(C(C)=O)ccc1OC)nn2CCOc1ccc([N+](=O)[O-])cc1` [Example 107], in assay [2] (10 mg/kg i.p. -2 h), the “Eosinophil million/animal x ± s” value worked out at 1.44 ± 0.92 million/animal and the “Inhibition [%] of eosinophilia” value worked out at 68%.
`COc1ccc2c(c1)c(OCCOc1ccc([N+](=O)[O-])cc1)nn2Cc1ccc(F)cc1` [Example 91, 1-(4-Fluorobenzyl)-5-methoxy-3-[2-(4-nitrophenoxy)ethoxy]-1H-indazole]: in assay [2] (10 mg/kg i.p. -2 h), the “Eosinophil million/animal x ± s” value is listed as 1.16 ± 0.65 million/animal and the “Inhibition [%] of eosinophilia” value turned out to be 71%.
In assay [1], `COc1ccc(S(=O)(=O)n2nc(OCCOc3ccc(Cl)cc3)c3cc(OC)ccc32)cc1` [Example 9] registered an inhibition at 10 µM of 90%.
Regarding `COc1ccc2c(c1)c(OCc1noc(-c3cccc(C(F)(F)F)c3)n1)nn2S(=O)(=O)c1ccc(C)cc1` [Example 32, 5-Methoxy-1-(toluene-4-sulphonyl)-3-[5-(3-trifluoromethylphenyl)-1,2,4-oxadiazol-3-ylmethoxy]-1H-indazole], in assay [2] (10 mg/kg i.p. -2 h), the “Eosinophil million/animal x ± s” value is listed as 0.86 ± 0.49 million/animal and the “Inhibition [%] of eosinophilia” value is recorded as 85%. 10 µM produced 70% inhibition in assay [1].
Compound `COc1ccc2c(c1)c(OCC(=O)Nc1ccc(F)cc1F)nn2S(=O)(=O)c1ccc(C)cc1` [Example 66, N-(2,4-Difluorophenyl)-2-[5-methoxy-1-(toluene-4-sulphonyl)-1H-indazol-3-yloxy]acetamide] showed an inhibition at 10 µM in assay [1] of 40%.
`O=C(Nc1ccc2c(c1)c(OCCOc1ccc([N+](=O)[O-])cc1)nn2Cc1ccc(Cl)c(Cl)c1)Nc1cccc2ccccc12` [Example 116] returned an inhibition at 10 µM in assay [1] of 90%.
The same measure, in the same setting: in the case of `COc1ccc2c(c1)c(OCCOc1ccc(Cl)cc1)nn2S(=O)(=O)c1ccc(Cl)cc1` [Example 7] it was 70%.
As to `COc1ccc2c(c1)c(OCCOc1ccc(Cl)cc1)nn2S(=O)(=O)c1ccc(F)cc1` [Example 8], in assay [2] (10 mg/kg i.p. -2 h), the “Eosinophil million/animal x ± s” value came to 1.84 ± 0.94 million/animal and the “Inhibition [%] of eosinophilia” value is on record as 41%.
In assay [1], `COc1ccc2c(c1)c(OCc1ccc(Cl)cc1[N+](=O)[O-])nn2S(=O)(=O)c1ccc(C)cc1` [Example 41] displayed an inhibition at 10 µM of 71%.
`COc1ccc2c(c1)c(OCCOc1c(F)cc(F)cc1Br)nn2S(=O)(=O)c1ccc(C)cc1` [Example 1, 3-[2-(2-Bromo-4,6-difluorophenoxy)ethoxy]-5-methoxy-1-(toluene-4-sulphonyl)-1H-indazole]: in assay [2] (10 mg/kg i.p. -2 h), the “Eosinophil million/animal x ± s” value is 1.23 ± 0.38 million/animal and the “Inhibition [%] of eosinophilia” value was determined as 61%. In assay [2] (30 mg/kg p.o. -2 h), the “Eosinophil million/animal x ± s” value stood at 1.75 ± 1.86 million/animal and the “Inhibition [%] of eosinophilia” value was determined as 65%. Besides, the inhibition at 10 µM in assay [1] was 95%.

As usually defined, the inhibition is the drop in the measured response relative to a control, in per cent. Read a high inhibition as a strong effect.

For the origin of these results see patent US6166023A, “1,5- and 3-O-substituted 1H-indazoles having anti-asthmatic, anti-allergic, anti-inflammatory, immunomodulating and neuroprotective action, process for their preparation and their use as medicaments” (Arzneimittelwerk Dresden GmbH, priority 1998, dated 2000).
